Results as given in US20250361240A1, “PYRANOPYRIDINE COMPOUND, PROCESS FOR PREPARING THE SAME, PHARMACEUTICAL COMPOSITION AND USE THEREOF” (Zhejiang Yangli Pharmaceutical Technology Co., Ltd., priority 2024, published 2025).

Tests used:
CYP2C19 = CYP2C19 (Homo sapiens (Human), UniProt P33261); experiment: In vitro inhibitory activity against common CYP450 enzymes: CYP2C19; assay type: in vitro ADME; conditions: microsomes, substrate (S)-(+)-Mephenytoin
Procedure: (§1) A working solution of the test compound was prepared in a solvent of dimethyl sulfoxide (DMSO) (starting at a final concentration of 50 μM, 3-fold dilution of 7 concentration points). The corresponding microsomes (CORNING, Cat No.452117) and the corresponding substrate solution were prepared (components were shown in Table 2). The working solution of the test compound and the corresponding microsomes were mixed with the corresponding substrate solution and the HLM working solution. The mixture was preheated in a 37.0° C. water bath for 10 min. NADPH cofactor (BONTAC, Cat No.BT04) was added. The resultant mixture was incubated for 10 min in a 37.0° C. water bath. The reaction was terminated by adding cold stop solution. [table] [table] The sample was centrifuged at 4000 rpm for 20 min to precipitate protein and the supernatant was transferred to HPLC water and shaken for 10 min.

CYP2D6 = CYP2D6 (Homo sapiens (Human), UniProt P10635); experiment: In vitro inhibitory activity against common CYP450 enzymes: CYP2D6; assay type: in vitro ADME; conditions: microsomes, substrate Dextromethorphan
CYP2D6, sequence (P10635 whole entry): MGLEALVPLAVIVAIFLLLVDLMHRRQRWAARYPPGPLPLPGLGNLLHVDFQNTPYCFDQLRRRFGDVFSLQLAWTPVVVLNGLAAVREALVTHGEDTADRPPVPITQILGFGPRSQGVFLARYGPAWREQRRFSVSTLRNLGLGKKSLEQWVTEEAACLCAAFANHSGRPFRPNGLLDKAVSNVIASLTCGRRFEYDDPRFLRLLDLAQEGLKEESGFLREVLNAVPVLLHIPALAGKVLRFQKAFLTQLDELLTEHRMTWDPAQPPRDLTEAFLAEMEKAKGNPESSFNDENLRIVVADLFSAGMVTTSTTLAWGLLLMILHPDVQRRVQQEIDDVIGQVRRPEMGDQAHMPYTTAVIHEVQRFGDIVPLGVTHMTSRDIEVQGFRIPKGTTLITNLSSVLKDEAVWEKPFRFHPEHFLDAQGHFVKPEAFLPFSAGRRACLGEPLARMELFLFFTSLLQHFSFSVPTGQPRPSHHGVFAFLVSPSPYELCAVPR
Procedure: as §1

cortisol levels = experiment: Pharmacodynamic test in cynomolgus monkeys with ACTH stimulation: cortisol in plasma; assay type: in vivo, cynomolgus monkeys (Macaca fascicularis); conditions: 0.5 mg/kg oral
Description: (§2) Adult cynomolgus monkeys (Macaca fascicularis) with suitable body weight and age were selected. 1 male and 1 female cynomolgus monkeys were used for experiment. The adaptation period was 1 week. On the day of the experiment, monkeys were individually housed in stainless steel mesh cages for testing.
(§3) Oral treatment and ACTH working solution (working solution diluted to the desired concentration in PBS sterile solution by ultrapure water filtration through a 0.22 μm filter using Tetracosactrin (HY-P0060, MCE)) were administered as follows: • T=0, 2 monkeys in each group were orally administered 0.5 mg/kg (compound was suspended in 5% aqueous sodium hydroxymethylcellulose solution as vehicle) in a fixed volume of 2 mL/kg; • T=+1 hour (i.e., 1 hour after administration), 14.5 μg/kg of the aforementioned ACTH working solution was injected intramuscularly.
(§4) Sampling test: Blood samples (collected in EDTA anticoagulant tubes) were collected before oral administration (Pre-dose) and 0.5 h, 1 h, 2 h, 4 h, 6 h and 12 h after administration for cortisol concentration measurement in plasma. The blood was centrifuged at 10000 rpm for 15 minutes at 4° C., followed by separation of the plasma and uniform storage at −80° C. for further analysis using an Roche biochemical analyzer to detect aldosterone and cortisol in plasma, and a portion of the plasma (0.5 h, 1 h, 2 h, 4 h, 6 h, and 12 h after administration, and an additional blood collection after 24 h) was taken simultaneously to determine the pharmacokinetic parameters by LC/MS.
(§5) The above experiment was repeated except that: T=0, two monkeys in each group were orally administered at a dose of 0.05 mg/kg (compound was suspended in 5% aqueous sodium hydroxymethylcellulose as vehicle) in a fixed volume of 2 mL/kg.

human CYP11B1 = human CYP11B1 (Homo sapiens (Human), UniProt P15538); experiment: Inhibitory activity against hCYP11B1 in G-402 CYP11B1 high expression stable transformants (cortisol HTRF); assay type: cell-based; conditions: G-402 CYP11B1 cells, 0.2 μM 11-deoxycortisol, 16 hours; read-out: hCYP11B1 Abs IC50
human CYP11B1, sequence (P15538 25-503): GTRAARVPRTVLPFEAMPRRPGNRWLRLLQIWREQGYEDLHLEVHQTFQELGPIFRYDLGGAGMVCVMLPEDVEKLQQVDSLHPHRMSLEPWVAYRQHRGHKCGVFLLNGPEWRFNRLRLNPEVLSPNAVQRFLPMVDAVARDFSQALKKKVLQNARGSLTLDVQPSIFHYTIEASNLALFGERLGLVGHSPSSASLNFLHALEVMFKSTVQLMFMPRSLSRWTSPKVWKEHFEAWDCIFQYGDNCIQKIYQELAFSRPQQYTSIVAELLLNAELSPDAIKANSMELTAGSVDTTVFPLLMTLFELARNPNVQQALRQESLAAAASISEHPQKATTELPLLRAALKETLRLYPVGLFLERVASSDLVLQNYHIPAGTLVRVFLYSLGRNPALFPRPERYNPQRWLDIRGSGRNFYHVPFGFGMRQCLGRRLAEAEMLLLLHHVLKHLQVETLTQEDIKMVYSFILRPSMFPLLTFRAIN
Procedure: (§6) 1. Experimental System: G-402 CYP11B2 or CYP11B1 High Expression Stable Transformants
(§7) The above-mentioned high-expression stable transformants were constructed based on human […] cell line G-402. The artificial lentiviruses were introduced into human CYP11B2 (NM_000498.3) and CYP11B1 (NM_000497.4), respectively.
(§8) Maintenance medium: McCoy's 5A (modified, #16600082, GIBCO)+10% FBS (GIBCO)+1 μg/mL puromycin (A1113803, GIBCO).
(§9) Resuscitation and seeding medium: McCoy's 5A (modified, #16600082, GIBCO)+10% FBS (GIBCO).
(§10) Reaction medium: DMEM/F12 (#11320033, GIBCO)+2.5% activated charcoal filtered FBS (S11695, R & D).
(§11) Seeding: Cells were cultured to a suitable state after resuscitation with maintenance medium, and 96-well flat plates were seeded with seeding medium according to 1×10^4/100 μL/well (unified cell volume).
(§12) Changing solution: The supernatant was aspirated and discarded after seeding overnight (>12 hours) and adherence. 100-150 μL/well serum-free medium was added, and after being aspirated. After aspiration, 50 μL/well reaction medium was added for later use.
(§13) Formulation: Compound was diluted with reaction medium containing 0.4 μM substrate (final experimental concentration is 0.2 μM):
CYP11B1 substrate: 11-deoxycortisol (11-deoxycortisol, S4775, selleckchem). The final reaction concentration was 0.2 μM.
(§14) Loading: The above compound dilutions were added to the cell plates at 50 μL/well. The background and control wells were set.
(§15) Treating and sampling: The cell plates were incubated in a cell incubator for 16 hours after loading, and then each cell plate was centrifuged at 450 g for 2 min. 75 μL supernatant was transferred to a collection plate and frozen at −80° C. for future use (or direct detection).
(§16) Detection: Homogeneous time-resolved fluorescence kit (Cisbio HTRF kit, Cat.64ALDPEG, Cat.62CRTPEG) was used to determine the concentration of aldosterone or cortisol in the supernatant.
(§17) Analysis: The absolute IC50 (Abs IC50) for each compound was calculated using a four parameter fit.

aldosterone synthesis = experiment: Pharmacodynamic test in cynomolgus monkeys with ACTH stimulation: aldosterone in plasma; assay type: in vivo, cynomolgus monkeys (Macaca fascicularis); conditions: 0.5 mg/kg oral
Description: as §2, §3, §4, §5

CYP3A-M = CYP3A-M (Homo sapiens, UniProt P08684); experiment: In vitro inhibitory activity against common CYP450 enzymes: CYP3A (midazolam); assay type: in vitro ADME; conditions: microsomes, substrate Midazolam
CYP3A-M, sequence (P08684 2-503 limits assumed): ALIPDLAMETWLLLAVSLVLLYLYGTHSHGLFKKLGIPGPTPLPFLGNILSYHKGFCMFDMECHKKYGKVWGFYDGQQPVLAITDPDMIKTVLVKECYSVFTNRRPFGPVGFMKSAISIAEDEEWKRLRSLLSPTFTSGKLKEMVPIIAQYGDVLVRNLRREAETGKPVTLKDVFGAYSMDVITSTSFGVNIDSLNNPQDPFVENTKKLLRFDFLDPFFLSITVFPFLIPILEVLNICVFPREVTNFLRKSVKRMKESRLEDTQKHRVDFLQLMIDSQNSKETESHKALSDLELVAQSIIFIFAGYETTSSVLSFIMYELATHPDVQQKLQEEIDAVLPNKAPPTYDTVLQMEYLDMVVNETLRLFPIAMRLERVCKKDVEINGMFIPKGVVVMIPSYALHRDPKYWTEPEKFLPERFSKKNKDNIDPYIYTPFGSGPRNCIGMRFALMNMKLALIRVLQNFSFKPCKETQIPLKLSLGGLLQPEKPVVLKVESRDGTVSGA
Procedure: as §1

human CYP11B2 = human CYP11B2 (Homo sapiens (Human), UniProt P19099); experiment: Inhibitory activity against hCYP11B2 in G-402 CYP11B2 high expression stable transformants (aldosterone HTRF); assay type: cell-based
human CYP11B2, sequence (P19099 25-503): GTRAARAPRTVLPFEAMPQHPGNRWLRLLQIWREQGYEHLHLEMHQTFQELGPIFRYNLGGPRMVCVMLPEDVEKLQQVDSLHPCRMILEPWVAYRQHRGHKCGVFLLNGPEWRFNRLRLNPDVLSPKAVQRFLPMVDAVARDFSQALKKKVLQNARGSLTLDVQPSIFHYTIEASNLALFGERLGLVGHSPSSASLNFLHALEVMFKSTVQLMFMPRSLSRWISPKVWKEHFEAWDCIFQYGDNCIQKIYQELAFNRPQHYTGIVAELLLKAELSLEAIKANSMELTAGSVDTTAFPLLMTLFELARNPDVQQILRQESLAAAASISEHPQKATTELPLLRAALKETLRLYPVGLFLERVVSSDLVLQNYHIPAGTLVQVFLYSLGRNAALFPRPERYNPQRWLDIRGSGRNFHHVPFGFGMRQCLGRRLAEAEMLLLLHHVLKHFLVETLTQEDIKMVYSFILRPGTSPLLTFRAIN
Procedure: as §6, §7, §8, §9, §10, §11, §12, §13
CYP11B2 substrate: 11-deoxycorticosterone (11-deoxycorticosterone, S4243, selleckchem). The final reaction concentration was 0.2 μM
as §14, §15, §16, §17

CYP2C9 = CYP2C9 (Homo sapiens (Human), UniProt P11712); experiment: In vitro inhibitory activity against common CYP450 enzymes: CYP2C9; assay type: in vitro ADME; conditions: microsomes, substrate Diclofenac
CYP2C9, sequence (P11712 whole entry): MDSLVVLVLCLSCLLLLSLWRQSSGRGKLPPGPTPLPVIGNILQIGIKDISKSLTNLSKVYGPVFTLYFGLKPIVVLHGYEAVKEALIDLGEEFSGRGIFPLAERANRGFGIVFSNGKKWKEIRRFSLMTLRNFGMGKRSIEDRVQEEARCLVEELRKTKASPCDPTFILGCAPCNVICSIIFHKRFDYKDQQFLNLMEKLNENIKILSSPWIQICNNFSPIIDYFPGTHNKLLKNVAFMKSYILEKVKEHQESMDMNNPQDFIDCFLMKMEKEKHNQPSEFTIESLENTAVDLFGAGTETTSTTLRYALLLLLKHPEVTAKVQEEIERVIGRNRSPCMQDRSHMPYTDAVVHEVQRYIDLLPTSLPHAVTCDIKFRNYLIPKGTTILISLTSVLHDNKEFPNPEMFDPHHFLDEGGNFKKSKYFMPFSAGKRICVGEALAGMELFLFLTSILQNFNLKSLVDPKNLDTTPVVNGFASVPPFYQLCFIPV
Procedure: as §1

[1] = Pharmacokinetic test in cynomolgus monkeys (LC/MS); assay type: in vivo, cynomolgus monkeys (Macaca fascicularis); conditions: both sexes, cynomolgus monkey, plasma, 0.5 mg/kg, 0.5mpk oral
Description: as §2, §3, §4, §5

CYP1A2 = CYP1A2 (Homo sapiens (Human), UniProt P05177); experiment: In vitro inhibitory activity against common CYP450 enzymes: CYP1A2; assay type: in vitro ADME; conditions: human, microsomes, 10 min
CYP1A2, sequence (P05177 whole entry): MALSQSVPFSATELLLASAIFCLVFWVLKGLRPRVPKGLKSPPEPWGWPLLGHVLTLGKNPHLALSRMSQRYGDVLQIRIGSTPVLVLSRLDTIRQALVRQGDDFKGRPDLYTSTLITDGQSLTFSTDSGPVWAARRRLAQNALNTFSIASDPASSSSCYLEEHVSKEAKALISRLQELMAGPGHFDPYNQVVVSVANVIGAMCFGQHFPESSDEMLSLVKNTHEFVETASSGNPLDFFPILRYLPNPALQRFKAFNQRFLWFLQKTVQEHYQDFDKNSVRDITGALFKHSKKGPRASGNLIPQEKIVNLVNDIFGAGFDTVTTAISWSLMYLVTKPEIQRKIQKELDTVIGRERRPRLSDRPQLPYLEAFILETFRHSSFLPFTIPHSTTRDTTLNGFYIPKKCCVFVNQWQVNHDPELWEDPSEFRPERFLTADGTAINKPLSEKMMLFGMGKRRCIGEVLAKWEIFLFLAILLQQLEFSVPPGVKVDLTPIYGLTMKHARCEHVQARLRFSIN
Procedure: as §1

CYP2C19, sequence (P33261 whole entry): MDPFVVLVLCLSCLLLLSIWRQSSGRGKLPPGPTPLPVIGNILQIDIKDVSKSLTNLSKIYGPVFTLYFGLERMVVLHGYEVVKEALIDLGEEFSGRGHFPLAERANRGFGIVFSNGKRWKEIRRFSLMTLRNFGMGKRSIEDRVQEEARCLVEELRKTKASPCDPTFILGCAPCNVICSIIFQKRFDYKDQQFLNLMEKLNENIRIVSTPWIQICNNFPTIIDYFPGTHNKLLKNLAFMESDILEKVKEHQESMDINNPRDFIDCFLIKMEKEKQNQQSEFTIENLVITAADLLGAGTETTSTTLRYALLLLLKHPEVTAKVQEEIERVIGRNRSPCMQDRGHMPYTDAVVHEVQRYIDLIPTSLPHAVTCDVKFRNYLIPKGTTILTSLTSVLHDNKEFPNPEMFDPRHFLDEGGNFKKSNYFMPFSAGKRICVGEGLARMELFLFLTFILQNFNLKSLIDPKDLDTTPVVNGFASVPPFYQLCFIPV

CCC(=O)N[C@@H]1CCOc2c(-c3ccc4c(c3)CCC(=O)N4C)cncc21 [Example 1, (R)-N-(8-(1-methyl-2-oxo-1,2,3,4-tetrahydroquinolin-6-yl)-3,4-dihydro-2H-pyran[3,2-c]pyridin-4-yl)propanamide]
IC50 (CYP2C19): > 50 µM
IC50 (CYP2D6): > 50 µM
Cortisol Concentration in Plasma (cortisol levels; 0.5 h): 1000.0 pg/mL
Cortisol Concentration in Plasma (cortisol levels; 1 h (ACTH at +1 hour)): 876.5 pg/mL
Cortisol Concentration in Plasma (cortisol levels; 2 h): 1180.0 pg/mL
Cortisol Concentration in Plasma (cortisol levels; 4 h): 602.7 pg/mL
Cortisol Concentration in Plasma (cortisol levels; 6 h): 476.3 pg/mL
Cortisol Concentration in Plasma (cortisol levels; 12 h): 377.3 pg/mL
Cortisol Concentration in Plasma (cortisol levels; Pre-dose): 699.3 pg/mL
IC50 (human CYP11B1): 4.21 µM
Aldosterone Concentration in Plasma (aldosterone synthesis; 0.5 h): 859.25 pg/mL
Aldosterone Concentration in Plasma (aldosterone synthesis; 1 h (ACTH at +1 hour)): 358.37 pg/mL
Aldosterone Concentration in Plasma (aldosterone synthesis; 2 h): 122.85 pg/mL
Aldosterone Concentration in Plasma (aldosterone synthesis; 4 h): 90.51 pg/mL
Aldosterone Concentration in Plasma (aldosterone synthesis; 6 h): 90.39 pg/mL
Aldosterone Concentration in Plasma (aldosterone synthesis; 12 h): 89.42 pg/mL
Aldosterone Concentration in Plasma (aldosterone synthesis; Pre-dose): 222.84 pg/mL
IC50 (CYP3A-M): > 50 µM
IC50 (human CYP11B2; G-402 CYP11B2 cells, 0.2 μM 11-deoxycorticosterone, 16 hours, read-out: hCYP11B2 (AS) Abs IC50): 0.0264 µM
hCYP11B ½ Selectivity Fold (human CYP11B2; hCYP11B1 IC50 relative to hCYP11B2 IC50): 159.64 Fold
IC50 (CYP2C9): > 50 µM
Cmax [1]: 152 ng/mL
Tmax [1]: 2 h
half-life [1]: 9.09 h
AUC(0-t) ([1]; read-out: AUC0-24 h): 1960 ng·h/mL
IC50 (CYP1A2): > 50 µM
